In patent US10842838B2, “Method for the use of botanical extracts in the treatment of viral infections” (priority 2012, dated 2020):

Test system: VACV
Type: cell-based, vaccinia virus
Details: 100 pfu VACV, 48 HPI

C=C(C)[C@@H]1CC[C@]2(C)CC[C@]3(C)[C@H](CC[C@@H]4[C@@]5(C)CC[C@H](O)C(C)(C)[C@@H]5CC[C@]43C)[C@@H]12 [lupeol]
antiviral activity, VACV plaques: did not show suitable antiviral activity
